# In patent EP1285920A1, “C10 Ester sustituted taxanes as antitumor agents” (Florida State University Research Foundation, Inc., priority 2001, dated 2003):
# Test system: HCT116
# Experiment: In Vitro cytotoxicity measured by the cell colony formation assay
# Assay type: cell-based, human
# Conditions: HCT116 colony formation; 72 h with drug, colonies counted after 7 days; ID50 = concentration producing 50% inhibition of colony formation; read-out: IN VITRO ID 50 HCT116
# Method: Four hundred cells (HCT116) were plated in 60 mm Petri dishes containing 2.7 mL of medium (modified McCoy's 5a medium containing 10% fetal bovine serum and 100 units/mL penicillin and […] streptomycin). The cells were incubated in a CO2 incubator at 37 °C for 5 h for attachment to the bottom of Petri dishes. The compounds identified in Example 2 were made up fresh in medium at ten times the final concentration, and then 0.3 mL of this stock solution was added to the 2.7 mL of medium in the dish. The cells were then incubated with drugs for 72 h at 37 °C. At the end of incubation the drug-containing media were decanted, the dishes were rinsed with 4 mL of Hank's Balance Salt Solution (HBSS), 5 mL of fresh medium was added, and the dishes were returned to the incubator for colony formation. The cell colonies were counted using a colony counter after incubation for 7 days.
row,Structure (SMILES),IC50
1,CC=CC(=O)OC1C(=O)C2(C)C(O)CC3OCC3(OC(C)=O)C2C(OC(=O)c2ccccc2)C2(O)CC(OC(=O)C(O)C(C=C(C)C)NC(=O)OC(C)(C)C)C(C)=C1C2(C)C (stereo not shown) [Compound 2332],< 1 nM
2,CCCC(=O)N[C@@H](c1cccs1)[C@@H](O)C(=O)O[C@H]1C[C@@]2(O)[C@@H](OC(=O)c3ccccc3)[C@@H]3[C@]4(OC(C)=O)CO[C@@H]4C[C@H](O)[C@@]3(C)C(=O)[C@H](OC(=O)CCC)C(=C1C)C2(C)C [Compound 3148],< 1 nM
3,CC=CC(=O)NC(c1cccs1)C(O)C(=O)OC1CC2(O)C(OC(=O)c3ccccc3)C3C4(OC(C)=O)COC4CC(O)C3(C)C(=O)C(OC(=O)CCC)C(=C1C)C2(C)C (stereo not shown) [Compound 3595],< 1 nM

# Same assay, conditions: Homo sapiens, HCT-116; read-out: IN VITRO ID 50 HCT116
row,Structure (SMILES),IC50
1,CCC(=O)O[C@H]1C(=O)[C@@]2(C)[C@H]([C@H](OC(=O)c3ccccc3)[C@]3(O)C[C@H](OC(=O)[C@H](O)[C@@H](NC(=O)c4cccnc4)c4cccs4)C(C)=C1C3(C)C)[C@]1(OC(C)=O)CO[C@@H]1C[C@@H]2O [Compound 4121],< 10 nM
2,CCC(=O)O[C@H]1C(=O)[C@@]2(C)[C@H]([C@H](OC(=O)c3ccccc3)[C@]3(O)C[C@H](OC(=O)[C@H](O)[C@@H](NC(=O)OC(C)(C)C)C4CC4)C(C)=C1C3(C)C)[C@]1(OC(C)=O)CO[C@@H]1C[C@@H]2O [Compound 0578],< 1 nM
3,CCCC(=O)OC1C(=O)C2(C)C(O)CC3OCC3(OC(C)=O)C2C(OC(=O)c2ccccc2)C2(O)CC(OC(=O)C(O)C(C=C(C)C)NC(=O)OCC(C)C)C(C)=C1C2(C)C (stereo not shown) [Compound 5144],< 10 nM
4,CCCC(=O)O[C@H]1C(=O)[C@@]2(C)[C@H]([C@H](OC(=O)c3ccccc3)[C@]3(O)C[C@H](OC(=O)[C@H](O)[C@@H](NC(=O)OC(C)(C)C)C4CCC4)C(C)=C1C3(C)C)[C@]1(OC(C)=O)CO[C@@H]1C[C@@H]2O [Compound 1044],< 1 nM
5,C/C=C/C(=O)N[C@@H](c1ccco1)[C@@H](O)C(=O)O[C@H]1C[C@@]2(O)[C@@H](OC(=O)c3ccccc3)[C@@H]3[C@]4(OC(C)=O)CO[C@@H]4C[C@H](O)[C@@]3(C)C(=O)[C@H](OC(=O)C3CC3)C(=C1C)C2(C)C [Compound 3971],< 1 nM
6,CC(=O)O[C@@]12CO[C@@H]1C[C@H](O)[C@@]1(C)C(=O)[C@H](OC(=O)C3CC3)C3=C(C)[C@@H](OC(=O)[C@H](O)[C@@H](NC(=O)OC(C)C)c4ccco4)C[C@@](O)([C@@H](OC(=O)c4ccccc4)[C@H]21)C3(C)C [Compound 3853],< 1 nM
7,CCC(=O)OC1C(=O)C2(C)C(O)CC3OCC3(OC(C)=O)C2C(OC(=O)c2ccccc2)C2(O)CC(OC(=O)C(O)C(C=C(C)C)NC(=O)OCC(C)C)C(C)=C1C2(C)C (stereo not shown) [Compound 5065],< 10 nM
8,CCCC(=O)O[C@H]1C(=O)[C@@]2(C)[C@H]([C@H](OC(=O)c3ccccc3)[C@]3(O)C[C@H](OC(=O)[C@H](O)[C@@H](NC(=O)c4ccco4)c4cccs4)C(C)=C1C3(C)C)[C@]1(OC(C)=O)CO[C@@H]1C[C@@H]2O [Compound 3352],< 1 nM
9,CCCC(=O)O[C@H]1C(=O)[C@@]2(C)[C@H]([C@H](OC(=O)c3ccccc3)[C@]3(O)C[C@H](OC(=O)[C@H](O)[C@@H](NC(=O)c4cccs4)c4ccco4)C(C)=C1C3(C)C)[C@]1(OC(C)=O)CO[C@@H]1C[C@@H]2O [Compound 3656],< 1 nM
10,CCCC(=O)O[C@H]1C(=O)[C@@]2(C)[C@H]([C@H](OC(=O)c3ccccc3)[C@]3(O)C[C@H](OC(=O)[C@H](O)[C@@H](NC(=O)OC(C)(C)C)C(C)C)C(C)=C1C3(C)C)[C@]1(OC(C)=O)CO[C@@H]1C[C@@H]2O [Compound 1031],< 10 nM
11,CC(=O)OC12COC1CC(O)C1(C)C(=O)C(OC(=O)C(C)C)C3=C(C)C(OC(=O)C(O)C(NC(=O)OC(C)(C)C)c4ccncc4)CC(O)(C(OC(=O)c4ccccc4)C21)C3(C)C (stereo not shown) [Compound 2255],< 1 nM
12,CC(=O)O[C@@]12CO[C@@H]1C[C@H](O)[C@@]1(C)C(=O)[C@H](OC(=O)c3cccs3)C3=C(C)[C@@H](OC(=O)[C@H](O)[C@@H](NC(=O)OC(C)(C)C)c4ccncc4)C[C@@](O)([C@@H](OC(=O)c4ccccc4)[C@H]21)C3(C)C [Compound 1954],< 1 nM
13,CC(=O)OC12COC1CC(O)C1(C)C(=O)C(OC(=O)C(C)C)C3=C(C)C(OC(=O)C(O)C(NC(=O)OC(C)(C)C)C4CCC4)CC(O)(C(OC(=O)c4ccccc4)C21)C3(C)C (stereo not shown) [Compound 2319],< 10 nM
14,CC(=O)O[C@@]12CO[C@@H]1C[C@H](O)[C@@]1(C)C(=O)[C@H](OC(=O)C3CC3)C3=C(C)[C@@H](OC(=O)[C@H](O)[C@@H](NC(=O)c4ccccc4)c4cccs4)C[C@@](O)([C@@H](OC(=O)c4ccccc4)[C@H]21)C3(C)C [Compound 0919],< 1 nM
15,CCC(=O)O[C@H]1C(=O)[C@@]2(C)[C@H]([C@H](OC(=O)c3ccccc3)[C@]3(O)C[C@H](OC(=O)[C@H](O)[C@@H](NC(=O)OCC(C)C)c4cccs4)C(C)=C1C3(C)C)[C@]1(OC(C)=O)CO[C@@H]1C[C@@H]2O [Compound 3163],< 1 nM
16,CCC(=O)O[C@H]1C(=O)[C@@]2(C)[C@H]([C@H](OC(=O)c3ccccc3)[C@]3(O)C[C@H](OC(=O)[C@H](O)[C@@H](NC(=O)c4ccncc4)c4cccs4)C(C)=C1C3(C)C)[C@]1(OC(C)=O)CO[C@@H]1C[C@@H]2O [Compound 4207],< 10 nM

row,Structure (SMILES),IC50
1,CCCC(=O)O[C@H]1C(=O)[C@@]2(C)[C@H]([C@H](OC(=O)c3ccccc3)[C@]3(O)C[C@H](OC(=O)[C@H](O)[C@@H](NC(=O)c4ccco4)c4ccco4)C(C)=C1C3(C)C)[C@]1(OC(C)=O)CO[C@@H]1C[C@@H]2O [Compound 3686],< 1 nM
2,CC(=O)OC12COC1CC(O)C1(C)C(=O)C(OC(=O)C3CC3)C3=C(C)C(OC(=O)C(O)C(NC(=O)OCC(C)C)c4ccsc4)CC(O)(C(OC(=O)c4ccccc4)C21)C3(C)C (stereo not shown) [Compound 5011],< 10 nM
3,CC(=O)O[C@@]12CO[C@@H]1C[C@H](O)[C@@]1(C)C(=O)[C@H](OC(=O)c3ccco3)C3=C(C)[C@@H](OC(=O)[C@H](O)[C@@H](NC(=O)OC(C)(C)C)c4ccc([N+](=O)[O-])cc4)C[C@@](O)([C@@H](OC(=O)c4ccccc4)[C@H]21)C3(C)C [Compound 2202],< 1 nM
4,CC(=O)OC12COC1CC(O)C1(C)C(=O)C(OC(=O)C(C)C)C3=C(C)C(OC(=O)C(O)C(NC(=O)OC(C)(C)C)c4cccs4)CC(O)(C(OC(=O)c4ccccc4)C21)C3(C)C (stereo not shown) [Compound 2287],< 1 nM
5,CCC(=O)O[C@H]1C(=O)[C@@]2(C)[C@H]([C@H](OC(=O)c3ccccc3)[C@]3(O)C[C@H](OC(=O)[C@H](O)[C@@H](NC(=O)OC(C)(C)C)c4ccc([N+](=O)[O-])cc4)C(C)=C1C3(C)C)[C@]1(OC(C)=O)CO[C@@H]1C[C@@H]2O [Compound 0602],< 1 nM
6,CCC(=O)O[C@H]1C(=O)[C@@]2(C)[C@H]([C@H](OC(=O)c3ccccc3)[C@]3(O)C[C@H](OC(=O)[C@H](O)[C@@H](NC(=O)OC(C)(C)C)c4ccoc4)C(C)=C1C3(C)C)[C@]1(OC(C)=O)CO[C@@H]1C[C@@H]2O [Compound 0549],< 10 nM
7,CC(=O)OC12COC1CC(O)C1(C)C(=O)C(OC(=O)C3CC3)C3=C(C)C(OC(=O)C(O)C(NC(=O)OCC(C)C)C4CC4)CC(O)(C(OC(=O)c4ccccc4)C21)C3(C)C (stereo not shown) [Compound 5232],< 10 nM
8,CC(=O)OC12COC1CC(O)C1(C)C(=O)C(OC(=O)c3ccco3)C3=C(C)C(OC(=O)C(O)C(NC(=O)OC(C)(C)C)c4ccccc4)CC(O)(C(OC(=O)c4ccccc4)C21)C3(C)C (stereo not shown) [Compound 2212],< 10 nM
9,CCCC(=O)O[C@H]1C(=O)[C@@]2(C)[C@H]([C@H](OC(=O)c3ccccc3)[C@]3(O)C[C@H](OC(=O)[C@H](O)[C@@H](NC(=O)OCC(C)C)c4ccoc4)C(C)=C1C3(C)C)[C@]1(OC(C)=O)CO[C@@H]1C[C@@H]2O [Compound 4704],< 10 nM
10,CC(=O)O[C@@]12CO[C@@H]1C[C@H](O)[C@@]1(C)C(=O)[C@H](OC(=O)c3ccco3)C3=C(C)[C@@H](OC(=O)[C@H](O)[C@H](C=C(C)C)NC(=O)OC(C)(C)C)C[C@@](O)([C@@H](OC(=O)c4ccccc4)[C@H]21)C3(C)C [Compound 2101],< 1 nM
11,CC(=O)O[C@@]12CO[C@@H]1C[C@H](O)[C@@]1(C)C(=O)[C@H](OC(=O)c3cccs3)C3=C(C)[C@@H](OC(=O)[C@H](O)[C@@H](NC(=O)OC(C)(C)C)c4ccsc4)C[C@@](O)([C@@H](OC(=O)c4ccccc4)[C@H]21)C3(C)C [Compound 1939],< 1 nM
12,CC(=O)O[C@@]12CO[C@@H]1C[C@H](O)[C@@]1(C)C(=O)[C@H](OC(=O)c3cccs3)C3=C(C)[C@@H](OC(=O)[C@H](O)[C@@H](NC(=O)OC(C)(C)C)c4ccoc4)C[C@@](O)([C@@H](OC(=O)c4ccccc4)[C@H]21)C3(C)C [Compound 1923],< 1 nM
13,CCCC(=O)O[C@H]1C(=O)[C@@]2(C)[C@H]([C@H](OC(=O)c3ccccc3)[C@]3(O)C[C@H](OC(=O)[C@H](O)[C@@H](NC(=O)c4cccs4)c4cccs4)C(C)=C1C3(C)C)[C@]1(OC(C)=O)CO[C@@H]1C[C@@H]2O [Compound 3408],< 1 nM
14,C/C=C/C(=O)N[C@@H](c1ccoc1)[C@@H](O)C(=O)O[C@H]1C[C@@]2(O)[C@@H](OC(=O)c3ccccc3)[C@@H]3[C@]4(OC(C)=O)CO[C@@H]4C[C@H](O)[C@@]3(C)C(=O)[C@H](OC(=O)CCC)C(=C1C)C2(C)C [Compound 4919],< 1 nM
15,CC(=O)O[C@@]12CO[C@@H]1C[C@H](O)[C@@]1(C)C(=O)[C@H](OC(=O)C=C(C)C)C3=C(C)[C@@H](OC(=O)[C@H](O)[C@@H](NC(=O)OC(C)(C)C)c4ccccc4)C[C@@](O)([C@@H](OC(=O)c4ccccc4)[C@H]21)C3(C)C [Compound 2520],< 10 nM
